Molecular target: benzodiazepine receptor
Assay: Specific benzodiazepine receptor binding: displacement of [^3 H] diazepam in crude mitochondrial fractions of rat cerebral cortex
Set-up: species or system rat (male SD strain)
Details: [^3 H] diazepam 2 nM, pH 7.4, 4° C., 20 minutes; read-out: IC50, effect on specific binding of [^3 H] diazepam
Protocol: The pharmacological properties of the compounds (I) of this invention were investigated by determining the substituting power thereof for radioactive diazepam from a benzodiazepine receptor.
Specific benzodiazepine receptor binding was carried out according to the method of C. Braestrup and R. F. Squiras (European J. Pharmacol., Vol. 48, 263-270, 1978). Thus, crude mitochondrial fractions obtained from the cerebral cortex of male SD strain rats 9 to 10 weeks of age were suspended in 50 mM Tris-HCl buffer (pH 7.4) and incubated with one of a series of concentrations of the test compound and [^3 H] diazepam (final concentration 2 nM) at 4° C. for 20 minutes. Then, the suspension was filtered through a Whatman GF/B glass fiber filter and the radioactivity of [^3 H] diazepam on the filter was measured by the liquid scintillation method. The concentration of the test drug which caused a 50% inhibition of [^3 H] diazepam specific binding was taken as the IC50 value.

Compound O=C(CC1c2ccccc2C(=O)N1c1ccc(Cl)cc1)N1CCCCC1 (stereo not drawn) has an IC50 of 8.86 nM.
COc1ccc(N2C(=O)C3=C(SCCS3)C2CC(=O)N2CCCCC2)cc1 (stereo not drawn) was tested, and the IC50 was 1.05 nM.
With O=C(CC1c2ccccc2C(=O)N1c1ccc2ccc(Cl)nc2n1)N1CCCCC1 (stereo not drawn) the IC50 was 0.645 nM.
COc1ccc(N2C(=O)c3ccc(Cl)cc3C2CC(=O)N2CCN(C)CC2)cc1 (stereo not drawn) was tested, and the IC50 was 1.99 nM.
With COc1ccc(N2C(=O)c3ccc(Cl)cc3C2CC(=O)N2CCCCC2)cc1 (stereo not drawn) the IC50 was 0.794 nM.
With CN(Cc1ccccc1)C(=O)CC1c2ccccc2C(=O)N1c1ccccc1 (stereo not drawn) the IC50 was 19.5 nM.
With O=C(CC1C2=C(SCCS2)C(=O)N1c1ccccc1)N1CCCCC1 (stereo not drawn) the IC50 was 7.58 nM.
Work on COc1ccc(N2C(=O)c3ccccc3C2CC(=O)N2CCSC2)cc1 (stereo not drawn) yielded an IC50 of 4.9 nM.
For O=C(CC1C2=C(SCCS2)C(=O)N1c1ccc(Cl)cc1)N1CCCCCC1 (stereo not drawn), the IC50 was 5.75 nM.
For COc1ccc(N2C(=O)c3ccc(N)cc3C2CC(=O)N2CCCCC2)cc1 (stereo not drawn), the IC50 was 3.8 nM.
With O=C(CC1C2=C(SCCS2)C(=O)N1c1ccc(Cl)cc1)N1CCCCC1 (stereo not drawn) the IC50 was 9.55 nM.
With COc1ccc(N2C(=O)c3ccccc3C2CC(=O)N2CCCCC2)cc1 (stereo not drawn) the IC50 was 4.46 nM.
